We go through 1 compound from patent US7282599B2, “Dithiocarbamate antiviral agents and methods of using same” (Avir Green Hills Biotechnology Research Devlopment Trade AG, priority 2001, dated 2007).

Structures are written as SMILES. A value given as a limit tells only on which side of the number the result lay.

For one data set, the system named is influenza virus. The experiment in a line: Mice inoculated intranasally with lethal dose of influenza virus, intranasal treatment. The settings on record: 25 μl 600 mM PDTC intranasally. The class given is in vivo, C57/BL6 mice. The protocol:
Ten C57/BL6 mice were inoculated intranasally with a lethal dose (50 μl 10^7 pfU). One hour later, they were treated intranasally with 25 μl 600 mM PDTC or with 25 μl PBS. The mice were examined and treated every 12 hours for the first 48 hours and then every 24 hours. The weights of the mice were determined and reported in % of the initial weight (% w) (FIG. 11A). […] All the mice treated with PBS (diamonds) died within 12 days after the infection (% s=% surviving).

The test system of data set [1] is HRV2. The experiment in a line: Cell Titer 96 cell proliferation assay, viability of HRV2-infected HeLa cells. The format is cell-based, human rhinovirus. The settings on record: HeLa cells, HRV2 20 TCID50/cell, 24 hours after infection, even slight concentrations. The source says: A cell proliferation assay was done to test the effect of PDTC or DDTC on the viability of the cells during a viral infection.

Data set [2] deals with HRV2. The experiment in a line: Crystal violet staining of cell lawn of HRV2-infected HeLa cells. The class given is cell-based, human rhinovirus. The settings on record: HRV2 100 TCID50 per cell, compound added 1 hour after infection, stained after 24 hours.
The test system of the next data set is BHK-21 cells. The settings on record: PDTC 0.975 to 1000 μM, 4 days at 37° C.
In another data set the test system is eIF4GI. Description: Western blot of eIF4GI splitting by viral 2A protease in HRV2-infected HeLa cells. The format is cell-based, human rhinovirus. The settings on record: HRV2 100 TCID50 per cell. The protocol: Various proteolytic activities were determined to examine the course of a rhinoviral infection in the presence and absence of PDTC. Enzymatic splitting of the cellular translation initiation factors 4GI (eIF4GI) and 4GII by viral 2A protease, ending host cell protein synthesis, is one characteristic proteolytic activity that occurs in the course of infection with rhinoviruses and enteroviruses. Depending on the HRV serotype, eIF4G proteins are split in an early stage of infection. Another splitting activity during a rhinoviral infection, only recently described, is splitting of the intermediary filament protein cytokeratin 8. This splitting also depends on the 2A protease, but occurs at a later stage of the infection. In order to investigate the effect of a PDTC treatment on the course of a virus infection, a Western blot analysis was done to analyze these 2A protease substrates.
Medium was removed at the indicated times for the Western blot analysis. The cells were lysed by adding 100 μl of protein buffer (8% sodium dodecyl sulfate, 20% β-mercapto-ethanol, 20% glycerol, 0.04% bromphenol blue). 20 μl protein extract was separated by SDS-PAGE on each track, and blotted onto PVDF membranes. […] The molecular weights were determined by using a prestained SDS-7B marker (Sigma).
Splitting of eIF4GI can be detected 4 hours after infection in HeLa cells infected with HRV2 (100 TCID50 per cell). […]
In general terms: A western blot detects proteins with antibodies after separation by electrophoresis.

Data set [3] concerns rhinoviral proteins VP1, VP2 and VP3. Description: Western blot of HRV2 capsid proteins in infected HeLa cells. The class given is cell-based, human rhinovirus. The settings on record: HRV2 100 TCID50 per cell. The source says:
To determine the effect of PDTC on the expression of viral proteins, capsid proteins of HRV2 were detected by Western blot analysis in protein extracts from HRV2-infected HeLa cells (100 TCID50 per cell) (see FIG. 6). The Western blot analysis was done as described above in Example 5, with use of a polyclonal rabbit antiserum against HRV2. Significant amounts of the rhinoviral proteins VP1, VP2 and VP3 were detected in untreated cells six hours after infection.

The subject of the next data set is EMC virus. The experiment in a line: Mice infected intraperitoneally with EMC virus, intraperitoneal treatment. The format is in vivo, C57B16 mice. The settings on record: 50 μl of 50 mM PDTC per day i.p. The protocol: C57B16 mice were infected intraperitoneally with 10 TCID50 of EMC virus. Then, the control group was treated intraperitoneally once daily with PBS. Two other groups were treated with 50 μl of 50 mM PDTC per day. Treatment of one group (PDTC) was started simultaneously with the infection, while treatment of the other group (PDTC 24 hpi) was started only 24 hours after the infection.

Another data set concerns A/PR8/34. Description: microbe, parasite or virus in culture. The settings on record: 4 days. The format is cell-based, influenza A virus.
Data set [4] deals with HRC serotypes 1A, 2, 14 and 16. Description: Time of addition, proliferation assay of HRV-infected cells. The class given is cell-based, human rhinovirus. The settings on record: PDTC 125 μM, 20 TCID50 per cell. The protocol:
To determine the stage of the viral life cycle attacked by PDTC, PDTC was added at various times following virus infection with 20 TCID50 per cell, and proliferation assays were done. […] This effect is also not specific for a single serotype, as HRC serotypes 1A, 2, 14 and 16 were used. Only PDTC treatment (125 μM) of the cells more than 8 hours after infection reduced the protective effect.

Data set [5] concerns influenza A/PR8/34 and influenza A/Vienna/47/96. The experiment in a line: microbe, parasite or virus in culture. The class given is cell-based, influenza A virus.
For data set [6], the system named is HRV serotypes 1A, 2, 14 and 16. The experiment in a line: Virus progeny titer (TCID50 test) in supernatants of HRV-infected HeLa cells. The settings on record: 20 TCID50 per cell, PDTC 125 μm. The class given is cell-based, human rhinovirus. Here is the method: PDTC was added after infection of cells with various HRV serotypes to test the effectiveness during infections by HRV. HeLa cells were infected with HRV serotypes 1A, 2, 14 and 16 with 20 TCID50 (tissue culture infectious dose 50) per cell. PDTC was added at the same time to a concentration of 125 μm in the medium. Excess virus was removed 4 hours after infection, while PDTC was added to the fresh medium. 24 hours (FIG. 1, top) and 48 hours (FIG. 1, bottom) after the infection (p. I.), the supernatants were collected and the amount of virus progeny was determined by TCID50 tests. Treatment of cells with PDTC reduced the virus titer (vt) by 10^3 after 24 hours (FIG. 1, top).

Take `S=C(S)N1CCCC1` [PDTC, pyrrolidine dithiocarbamate]: in the data set with influenza virus (7 days after the infection), the “weight of infected mice” value is given as “gained weight”. Further, the “survival of infected mice” value with influenza virus (from one hour after lethal inoculation) is reported as “all the mice treated with PDTC (squares) survived the virus infection”. The “viability of infected cells” value in the data set with HRV2 [1] is listed as “significantly increased”. In addition, the “prevention of destruction of the cell lawn by HRV2 infection” value in the data set with HRV2 [2] is recorded as “can prevent that effect”. The “toxic effects on cell monolayer (microscopic examination)” value in the data set on BHK-21 cells was “no indications of toxic effects”. In the data set with eIF4GI (4 and 8 hours after infection), the “splitting of eIF4GI” value is “No splitting of eIF4GI can be detected”. For the same compound, the “splitting of eIF4GI” value in the data set with eIF4GI (about 24 hours after infection) is given as “slight eIF4GI splitting can be detected”. In addition, the “expression of VP1, VP2 and VP3” value in data set [3] (about 24 hours after infection) is recorded as “Weak expression”. For the same compound, the “expression of capsid proteins VP1, VP2 and VP3” value in data set [3] (within the first 8 hours after infection) is “prevented expression of those capsid proteins”. In the data set with EMC virus (started with infection or 24 hours after), the “changes of the mouse weights after the beginning of the infection” value is “no difference in treated and untreated mice”. In addition, in the data set with EMC virus (every group: PBS, PDTC, PDTC 24 hpi), the “average time to death for the infected mice” value stood at 5.5 days. Further, in the data set on A/PR8/34 (Influenza A virus, PR8, 96 h, PDTC 1200 μM, read-out: inhibition (TCID50 assay)), the inhibition (usually the percentage by which the read-out fell short of the control) at 1200 µM is more than 99.9%. The “reduction of TCID50” value in the data set with A/PR8/34 (PDTC 300 μM) is 76.4%. Further, in data set [4], the “time of PDTC treatment after infection at which the protective effect was reduced” value is reported as “more than 8 hours” and the “time of addition offering the best protection against virus induced loss of proliferation” value is reported as “within the first six hours after infection”. Further, in data set [5] (Influenza A virus, PR8, Vero, 96 h, read-out: PDTC concentration for 50% reduction of positive wells), the EC50 was in the range of 50 to 100 µM. Moreover, in data set [5] (all viruses, vero cells), the “PDTC concentration for complete inhibition of cytopathic effects” value is 600 µM. Moreover, the “reduction of the virus titer (vt)” value in data set [6] (supernatants 24 hours after infection) was 10^3. The “virus titer in supernatants” value in data set [6] (supernatants 48 hours after infection) is “significant reduction of the virus titer”.
